Assay [1] addresses T1, WDR5 (Homo sapiens, UniProt P61964). It counts as binding. The note with it: fluorescence polarization, 40 nM FITC-WIN peptide, 5 μM WDR5, triplicate. (In general: Fluorescence polarisation rises when a labelled molecule tumbles more slowly, as on binding a larger partner.)
Assay [2] addresses T1, WDR5. The experiment in a line: ITC. The assay is classed as binding.
Assay [3] has as its target MLL–WDR5–RbBP5 core complex (trimeric complex) (Homo sapiens, UniProt P61964). Description: Methyltransferase activity of trimeric MLL complex. The assay is classed as biochemical.
The target of assay [4] is MLL–WDR5–RbBP5–ASH2L complex (Homo sapiens, UniProt P61964). The experiment in a line: Methyltransferase activity of tetrameric MLL complex. The assay is classed as biochemical. The note with it: tetrameric MLL complex at 10, 50 and 125 nM; not calculated owing to incomplete fitting.
For the next assay, the system named is SETD7. The experiment in a line: HMT selectivity panel: SETD7. It counts as biochemical, human. The conditions noted are these: concentrations up to 100 μM.
The subject of a further assay is G9a. The experiment in a line: HMT selectivity panel: G9a. The assay is classed as biochemical, human. The conditions noted are these: concentrations up to 100 μM.
The next assay relates to EHMT1. Description: HMT selectivity panel: EHMT1. The assay is classed as biochemical, human. The conditions noted are these: concentrations up to 100 μM.
For the next assay, the system named is SUV39H2. The experiment in a line: HMT selectivity panel: SUV39H2. The assay is classed as biochemical, human. The conditions noted are these: concentrations up to 100 μM.
The subject of the next assay is SETD8. Description: HMT selectivity panel: SETD8. It counts as biochemical, human. The note with it: concentrations up to 100 μM.
The subject of the next assay is PRMT3. Description: HMT selectivity panel: PRMT3. The assay is classed as biochemical, human. The conditions noted are these: concentrations up to 100 μM.
A further assay deals with PRMT5_MEP50 complex. Description: HMT selectivity panel: PRMT5. The assay is classed as biochemical, human. The conditions noted are these: concentrations up to 100 μM.

Each structure is given as a SMILES string. “Also recorded” adds a separate entry of the source.

What is called Kd is a measure of binding affinity in units of concentration. Higher therefore signals lower affinity. What is called IC50 is the concentration at which inhibition is half-maximal. Lower therefore signals greater potency. On to `COC(=O)c1ccc(N2CCN(C)CC2)c(NC(=O)c2cccc(OC)c2)c1` [WDR5-0103, methyl-3-(3-methoxybenzamido)-4-(4-methylpiperazin-1-yl)benzoate], for which the “Kdis (Kdisplacement)” value at WDR5 [1] came out at 3.0 ± 0.1 µM. On WDR5 [2], this molecule had an equilibrium dissociation constant (Kd) of 0.45 ± 0.02 µM. Besides, the 50% inhibitory concentration (IC50) turned out to be 39 ± 10 µM in assay [3] (IC50, 125 nM (0.125 μM) trimeric MLL complex); 83 ± 10 µM in assay [3] (IC50, 500 nM trimeric MLL complex); 280 ± 12 µM in assay [3] (IC50, 1000 nM trimeric MLL complex). Also, the “IC50 relative to trimeric complex” value in assay [4] was “significantly higher”. The inhibitory effect entry with SETD7 is on record as “no inhibitory effect; also recorded: did not affect methyltransferase activity”; in the assay on G9a it was “no inhibitory effect”; in the assay with EHMT1 it was “no inhibitory effect”; with SUV39H2, “no inhibitory effect”; in the assay on SETD8, “no inhibitory effect”; in the assay with PRMT3, “no inhibitory effect”. For the same molecule, the inhibitory effect result in the assay with PRMT5_MEP50 complex is listed as “no inhibitory effect”.

Take `CN1CCN(c2ccc([N+](=O)[O-])cc2NC(=O)c2ccccc2)CC1` [WDR5-0101, N-(2-(4-methylpiperazin-1-yl)-5 nitrophenyl)benzamide]: on WDR5 [1], the “Kdis (Kdisplacement)” value was found to be 12 ± 1 µM. At WDR5 [2], this molecule displayed a Kd of 5.5 ± 0.6 µM.

Values taken from PMC3517986 (Biochemical Journal, 2012).
